# According to patent US20180258381A1, “BIO-LAMINA BIOREACTORS AND METHODS OF MAKING AND USING THE SAME” (Oregon State University, priority 2015, published 2018):
# Legend:
# sMMO = target: T1, sMMO (Methylosinus trichosporium, UniProt P27353); experiment: sMMO activity reactivity assay, inhibitor trials; type: cell-based, M. trichosporium OB3b
# T1 construct: endogenous in cells; host or cells: M. trichosporium OB3b whole cells, grown without copper (chemostat or batch)
# T1 sequence (P27353 1-526): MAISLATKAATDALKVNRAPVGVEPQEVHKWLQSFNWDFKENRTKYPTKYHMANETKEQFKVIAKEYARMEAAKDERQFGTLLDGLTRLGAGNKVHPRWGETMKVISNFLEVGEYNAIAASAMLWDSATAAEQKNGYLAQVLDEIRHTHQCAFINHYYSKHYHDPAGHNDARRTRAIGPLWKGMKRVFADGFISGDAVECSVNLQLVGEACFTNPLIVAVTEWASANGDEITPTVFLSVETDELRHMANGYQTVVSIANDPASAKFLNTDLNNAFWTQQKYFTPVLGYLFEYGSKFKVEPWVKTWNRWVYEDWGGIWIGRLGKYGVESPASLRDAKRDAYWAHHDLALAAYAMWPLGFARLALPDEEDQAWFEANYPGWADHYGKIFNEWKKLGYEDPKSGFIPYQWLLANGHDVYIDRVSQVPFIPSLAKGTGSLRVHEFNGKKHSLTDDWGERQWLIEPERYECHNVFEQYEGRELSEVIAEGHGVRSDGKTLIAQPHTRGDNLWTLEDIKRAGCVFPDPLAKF
# T1 sequence (P27354 1-394 partner): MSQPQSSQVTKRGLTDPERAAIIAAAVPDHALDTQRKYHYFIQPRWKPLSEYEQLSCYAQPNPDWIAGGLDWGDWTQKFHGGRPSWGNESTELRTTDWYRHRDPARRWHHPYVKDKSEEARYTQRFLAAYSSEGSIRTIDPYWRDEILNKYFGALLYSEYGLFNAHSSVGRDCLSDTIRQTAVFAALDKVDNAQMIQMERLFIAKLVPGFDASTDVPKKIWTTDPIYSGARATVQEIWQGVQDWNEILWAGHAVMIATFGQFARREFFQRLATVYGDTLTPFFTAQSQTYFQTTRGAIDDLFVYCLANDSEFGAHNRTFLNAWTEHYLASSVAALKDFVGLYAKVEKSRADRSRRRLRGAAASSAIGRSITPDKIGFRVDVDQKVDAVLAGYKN
# T1 sequence (P27355 1-169 partner): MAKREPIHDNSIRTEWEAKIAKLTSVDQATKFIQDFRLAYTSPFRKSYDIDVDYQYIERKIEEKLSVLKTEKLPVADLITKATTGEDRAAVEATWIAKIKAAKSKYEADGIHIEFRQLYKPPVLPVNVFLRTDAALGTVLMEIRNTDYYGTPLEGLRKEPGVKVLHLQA
# Protocol: M. trichosporium OB3b cultures were grown under plus copper (pMMO expressed) or minus copper (sMMO expressed) conditions using chemostat or batch culture conditions. Aliquots of culture (˜100 ml) were harvested by centrifugation, and concentrated 50-fold in fresh media. Pelleting cells in this manner ensured that all residual methane was eliminated, increased ease of measuring protein, and made activity assays as brief as possible. Assays were performed in 30 ml crimp cap reaction vials with 4 ml of media (either +Cu or −Cu) with 10 mM sodium formate. To initiate assays, 100 µl of the 50× cell suspension was added to reaction vials with a plastic syringe. Short descriptions of activity assays follow.
# Due to the relative insolubility of methane, large volumes should be added to reaction vials to achieve concentrations in the aqueous phase (Cw) above the concentration of methane where the velocity of methane consumption (V) is equal to 0.5Vmax for minus copper grown M. trichosporium OB3b cultures. These large methane additions make direct measurement of methane consumption in short-term assays unlikely, therefore the accumulation of ethylene oxide (ETO) upon the oxidation of ethylene (ETH) was used as a surrogate measurement. Reaction vials were prepared as described above and 5 ml of ETH added as an overpressure. The appearance of ETO was monitored by gas chromatography evaluation of Cw over the course of 30 minutes (FIG. 39A). Killed cells (boiled) served as a negative control. pMMO is a copper enzyme and can be inhibited by allylthiourea (ATU), while sMMO (an iron enzyme) is insensitive to inhibition by ATU. The ETH to ETO assay described above was repeated with 10 μM ATU to discriminate between sMMO and pMMO activity.
# (§1) Metabolic activity test methods have been developed to monitor specific activities in M. trichosporium OB3b cultures. A naphthalene oxidation assay was used to determine if sMMO is being expressed. An ethylene to ethylene oxide reaction assay and a methane oxidation assay was used to quantify MMO activity, and a methanol oxidation assay was used to estimate MDH activity. Concurrent batch metabolic tests can be conducted to investigate methanol inhibition of methane oxidation, cyclopropane to cyclopropanol conversion and concurrent/subsequent cyclopropanol inhibition of MDH activity, the effect of cyclopropanol inhibition on growth yield, and the effects of high oxygen concentration. Once stable operation and baseline metabolic monitoring in the chemostat have been achieved, inhibitor can be added to evaluate chemostat operation under methanol-producing conditions.
# MMO activity has been measured via both methane (CH4) consumption and ethylene oxide (ETO) production upon oxidation of the non-growth substrate ethylene (ETH, Table 4). While ETO production matches methane consumption for pMMO, ETH is not as good a substrate for sMMO as methane. Nevertheless, the ETO accumulation assay is quick (<30 min) and can be used to screen for activity before starting a larger experiment.
# (§2) The effect of salts NaCl, NH4Cl and CaCl2 on MMO and MDH activity was evaluated using the reactivity assays described above.
# MDH = MDH activity reactivity assay (methanol SOUR), inhibitor trials; type: cell-based, M. trichosporium OB3b
# Protocol: The procedure for measuring methanol dehydrogenase (MDH) activity by measuring the specific oxygen uptake rate (SOUR) has been tested on M. trichosporium OB3b cultures grown both in batch and in the chemostat. M. trichosporium OB3b cells were harvested using centrifugation. The supernatant was poured off and the cells were re-suspended in fresh media lacking a carbon source. Phosphate buffer solution was added to a sample chamber in which dissolved oxygen (DO) was measure with a DO probe. When the DO of the solution stabilized, the re-suspended cells were added to the sample chamber to measure baseline oxygen uptake by the cells without a carbon food source present. Methanol was then added to test for MDH activity. The difference in the oxygen uptake rates illustrates the MDH activity of the culture.
# as §1, with “concentration.” for “concentration. Once stable operation and baseline metabolic monitoring in the chemostat have been achieved, inhibitor can be added to evaluate chemostat operation under methanol-producing conditions.”
# as §2
structure (smiles),measurement,setting,value
[Ca+2].[Cl-].[Cl-] [CaCl2],"Fraction of Activity Remaining, sMMO",sMMO; CaCl2 10 mmol,0.41
same,"Fraction of Activity Remaining, sMMO",sMMO; CaCl2 20 mmol,0.29
same,"Fraction of Activity Remaining, sMMO",sMMO; CaCl2 40 mmol,0.20
same,"Fraction of Activity Remaining, MDH",MDH; CaCl2 10 mmol,0.71
same,"Fraction of Activity Remaining, MDH",MDH; CaCl2 40 mmol,0.45
same,"Fraction of Activity Remaining, MDH",MDH; CaCl2 66 mmol,0.35
same,selective inhibition of MDH activity versus MMO,MDH; salts tested on MMO and MDH activity,None of the salts were effective
